Drawing on patent publication US20100095396A1, “METHOD FOR INCREASING THE DRY BIOMASS OF PLANTS” (priority 2006, published 2010), this text covers Dry weight leaves and Dry weight roots for 1 compound.

In assay [1] the test system is Soybean. The experiment in a line: Increase of the dry biomass of soybean plants after seed treatment. The format is in vivo. Particulars: harvested 35 days after emergence, dried at 110° C., free disease conditions. From the text: (§1) Treatment with fipronil or fipronil+alpha-cypermethrin under free disease conditions
Soybean was cultivated under customary conditions at Campinas (Brazil) in 2005/2006. A part of the seeds of the test plants had beforehand been treated with fipronil. Another part of the seeds of the plants had beforehand been treated with a mixture of fipronil and alpha-cypermethrin. 35 days after the emergence of the plants, the plants and their roots were harvested. The leaves and the roots were completely dried in an oven at 110° C. and then weighed.

The subject of assay [2] is Corn. The experiment in a line: Increase of the dry biomass of corn plants after seed treatment. The format is in vivo. Conditions: harvested 37 days after emergence, dried at 110° C., free disease conditions.
Excerpt: as §1
Corn was cultivated under customary conditions at Campinas (Brazil) in 2005/2006. A part of the seeds of the test plants had beforehand been treated with fipronil. Another part of the seeds of the plants had beforehand been treated with a mixture of fipronil and alpha-cypermethrin. 37 days after the emergence of the plants, the plants and their roots were harvested. The leaves and the roots were completely dried in an oven at 110° C. and then weighed.

As for `N#Cc1nn(-c2c(Cl)cc(C(F)(F)F)cc2Cl)c(N)c1[S+]([O-])C(F)(F)F` (stereo not drawn) [Fipronil, 5-amino-1-(2,6-dichloro-α,α,α-trifluoro-p-tolyl)-4-trifluoromethylsulfinylpyrazole-3-carbonitrile], in assay [1], the Dry weight leaves was 13.15 and the Dry weight roots is 15.6. In addition, in assay [2], the Dry weight leaves worked out at 23.38 and the Dry weight roots is given as 41.27.
